We go through one molecule from ChEMBL document CHEMBL4219273, “Discovery of a novel olefin derivative as a highly potent and selective acetyl-CoA carboxylase 2 inhibitor with in vivo efficacy” (Bioorg Med Chem Lett, 2018).

The structures appear in SMILES notation.

The target of one data set is Acetyl-CoA carboxylase 2 (Homo sapiens, UniProt O00763). The experiment in a line: Inhibition of recombinant human ACC2 assessed as reduction in conversion of acetyl-CoA to malonyl-CoA incubated for 1 to 3 hrs with substrate by MALDI-TOF-MS analysis.
In the next data set the target is Acetyl-CoA carboxylase 1 (Homo sapiens, UniProt Q13085). Kind of data set: Inhibition of recombinant human ACC1 assessed as reduction in conversion of acetyl-CoA to malonyl-CoA incubated for 1 to 3 hrs with substrate by MALDI-TOF-MS analysis.
A further data set is filed under the species Homo sapiens. Kind of data set: Selectivity ratio of IC50 for recombinant human ACC1 to IC50 for recombinant human ACC2.
For the next data set, the target named is T1, Cytochrome P450 1A2 (Homo sapiens, UniProt P05177).
T1 sequence (P05177 whole entry): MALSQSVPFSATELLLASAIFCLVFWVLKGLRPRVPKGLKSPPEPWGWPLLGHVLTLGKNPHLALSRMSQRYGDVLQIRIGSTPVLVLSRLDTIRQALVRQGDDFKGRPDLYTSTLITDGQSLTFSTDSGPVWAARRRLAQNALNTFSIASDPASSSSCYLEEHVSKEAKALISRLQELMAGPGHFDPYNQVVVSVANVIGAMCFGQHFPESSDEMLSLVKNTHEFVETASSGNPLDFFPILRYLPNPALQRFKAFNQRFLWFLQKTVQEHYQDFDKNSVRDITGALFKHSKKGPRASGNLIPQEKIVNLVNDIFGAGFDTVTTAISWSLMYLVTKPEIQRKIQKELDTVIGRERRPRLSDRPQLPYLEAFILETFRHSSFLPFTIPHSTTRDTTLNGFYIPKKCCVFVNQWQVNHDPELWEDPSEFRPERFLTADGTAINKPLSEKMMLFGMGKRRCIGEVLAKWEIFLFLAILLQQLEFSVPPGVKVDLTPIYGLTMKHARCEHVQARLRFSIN
The experiment in a line: Inhibition of CYP1A2 (unknown origin). The format is ADME.

The target of another data set is Cytochrome P450 2C19 (Homo sapiens, UniProt P33261). Kind of data set: Inhibition of CYP2C19 (unknown origin). The format is ADME.
A further data set addresses Cytochrome P450 2C9 (Homo sapiens, UniProt P11712). Kind of data set: Inhibition of CYP2C9 (unknown origin). It is filed as ADME.
A further data set has as its target Cytochrome P450 2D6 (Homo sapiens, UniProt P10635). The experiment in a line: Inhibition of CYP2D6 (unknown origin). It is filed as ADME.
In a further data set the target is Cytochrome P450 3A4 (Homo sapiens, UniProt P08684). The experiment in a line: Inhibition of CYP3A4 (unknown origin). The format is ADME.
Data set [1] in a line: Metabolic stability in human liver microsomes assessed as parent compound remaining after 30 mins. As to conditions: read-out: Stability. The format is ADME, microsome.
Data set [2] can be described thus: Metabolic stability in rat liver microsomes assessed as parent compound remaining after 30 mins. As to conditions: read-out: Stability. It is filed as ADME, microsome.
Data set [3] concerns Mus musculus. The experiment in a line: Suppression of malonyl-CoA levels in C57BL/6 mouse skeletal muscle at 1 mg/kg, po measured at 6 hrs post dose by LC-MS analysis relative to control. The format is functional.
In data set [4] the test system is Mus musculus. The experiment in a line: Suppression of malonyl-CoA levels in C57BL/6 mouse skeletal muscle at 2.5 mg/kg, po measured at 6 hrs post dose by LC-MS analysis relative to control. It is filed as functional.
Data set [5] is described as follows: Plasma concentration in C57BL/6 mouse at 1 mg/kg, po measured at 6 hrs post dose by LC-MS analysis. It is filed as ADME, organism-based.
Data set [6] can be described thus: Plasma concentration in C57BL/6 mouse at 2.5 mg/kg, po measured at 6 hrs post dose by LC-MS analysis. The format is ADME, organism-based.
Data set [7] in a line: AUC (0 to 24 hrs) in rat at 50 mg/kg/day, po administered for 4 consecutive days measured on day 1. As to conditions: in vivo. Further details: dose 50 mg/kg/day, time < 24 hr, route oral. The format is ADME, organism-based.
A short description of data set [8]: Cmax in rat at 50 mg/kg/day, po administered for 4 consecutive days measured on day 1. Further details: dose 50 mg/kg/day, route oral. It is filed as ADME, organism-based. The note with it: in vivo.
For data set [9], the system named is Rattus norvegicus. The experiment in a line: Toxicity in rat assessed as abnormal clinical signs at 50 mg/kg/day, po administered for 4 consecutive days. It is filed as organism-based. As to conditions: in vivo.
Data set [10] relates to Rattus norvegicus. Kind of data set: Toxicity in rat assessed as histopathological lesions in heart at 50 mg/kg/day, po administered for 4 consecutive days. It is filed as organism-based. The note with it: in vivo.
Data set [11] is described as follows: Total clearance in C57BL/6 mouse at 0.2 mg/kg, iv. It is filed as ADME, organism-based. The note with it: in vivo.
Data set [12] in a line: AUC in C57BL/6 mouse at 2.5 mg/kg, po. It is filed as ADME, organism-based. The note with it: in vivo.
The nature of data set [13]: Cmax in C57BL/6 mouse at 2.5 mg/kg, po. The format is ADME, organism-based. More on the design: dose 2.5 mg/kg, route oral. The note with it: in vivo.
Data set [14] in a line: Oral bioavailability in C57BL/6 mouse at 2.5 mg/kg. It is filed as ADME, organism-based. The note with it: in vivo.

Cytochrome P450 3A4, sequence (P08684 whole entry): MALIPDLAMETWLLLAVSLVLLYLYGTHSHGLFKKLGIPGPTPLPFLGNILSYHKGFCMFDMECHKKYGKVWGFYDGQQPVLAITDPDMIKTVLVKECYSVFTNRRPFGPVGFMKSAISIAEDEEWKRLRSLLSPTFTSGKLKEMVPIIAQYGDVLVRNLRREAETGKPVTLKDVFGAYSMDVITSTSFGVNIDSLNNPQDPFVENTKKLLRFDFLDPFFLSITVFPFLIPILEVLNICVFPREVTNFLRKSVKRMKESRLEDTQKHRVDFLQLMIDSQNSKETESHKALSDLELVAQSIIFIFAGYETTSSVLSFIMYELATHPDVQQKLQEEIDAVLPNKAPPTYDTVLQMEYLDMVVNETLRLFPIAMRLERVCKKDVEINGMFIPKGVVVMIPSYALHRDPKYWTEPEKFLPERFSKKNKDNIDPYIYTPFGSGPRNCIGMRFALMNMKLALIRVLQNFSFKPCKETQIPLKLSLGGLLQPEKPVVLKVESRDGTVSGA
Cytochrome P450 2C19, sequence (P33261 whole entry): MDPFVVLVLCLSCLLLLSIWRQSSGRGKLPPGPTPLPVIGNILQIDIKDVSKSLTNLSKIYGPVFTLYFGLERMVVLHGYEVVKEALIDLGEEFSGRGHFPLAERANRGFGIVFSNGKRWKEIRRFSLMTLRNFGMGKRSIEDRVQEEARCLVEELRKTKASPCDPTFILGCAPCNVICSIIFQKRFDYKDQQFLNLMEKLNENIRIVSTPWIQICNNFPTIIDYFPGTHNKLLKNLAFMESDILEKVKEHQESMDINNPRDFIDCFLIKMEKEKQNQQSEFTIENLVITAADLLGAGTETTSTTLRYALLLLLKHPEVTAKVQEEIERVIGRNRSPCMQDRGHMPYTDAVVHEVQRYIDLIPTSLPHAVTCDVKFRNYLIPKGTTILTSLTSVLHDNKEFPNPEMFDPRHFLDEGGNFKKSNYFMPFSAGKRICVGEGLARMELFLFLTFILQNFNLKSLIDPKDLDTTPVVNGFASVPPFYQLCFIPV
Cytochrome P450 2D6, sequence (P10635 whole entry): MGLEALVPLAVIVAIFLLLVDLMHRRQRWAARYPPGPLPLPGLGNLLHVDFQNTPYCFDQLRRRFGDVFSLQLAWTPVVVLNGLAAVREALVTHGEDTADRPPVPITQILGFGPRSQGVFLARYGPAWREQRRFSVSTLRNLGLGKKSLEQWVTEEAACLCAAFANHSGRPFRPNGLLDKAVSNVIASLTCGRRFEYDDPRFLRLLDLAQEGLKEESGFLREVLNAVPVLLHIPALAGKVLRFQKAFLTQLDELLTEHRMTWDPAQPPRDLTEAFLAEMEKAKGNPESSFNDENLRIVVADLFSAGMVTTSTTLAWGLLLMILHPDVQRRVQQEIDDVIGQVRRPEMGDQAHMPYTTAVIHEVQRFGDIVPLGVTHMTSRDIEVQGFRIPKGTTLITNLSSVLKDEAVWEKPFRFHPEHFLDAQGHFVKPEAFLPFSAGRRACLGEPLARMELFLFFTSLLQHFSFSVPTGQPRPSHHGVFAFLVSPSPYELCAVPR
Cytochrome P450 2C9, sequence (P11712 whole entry): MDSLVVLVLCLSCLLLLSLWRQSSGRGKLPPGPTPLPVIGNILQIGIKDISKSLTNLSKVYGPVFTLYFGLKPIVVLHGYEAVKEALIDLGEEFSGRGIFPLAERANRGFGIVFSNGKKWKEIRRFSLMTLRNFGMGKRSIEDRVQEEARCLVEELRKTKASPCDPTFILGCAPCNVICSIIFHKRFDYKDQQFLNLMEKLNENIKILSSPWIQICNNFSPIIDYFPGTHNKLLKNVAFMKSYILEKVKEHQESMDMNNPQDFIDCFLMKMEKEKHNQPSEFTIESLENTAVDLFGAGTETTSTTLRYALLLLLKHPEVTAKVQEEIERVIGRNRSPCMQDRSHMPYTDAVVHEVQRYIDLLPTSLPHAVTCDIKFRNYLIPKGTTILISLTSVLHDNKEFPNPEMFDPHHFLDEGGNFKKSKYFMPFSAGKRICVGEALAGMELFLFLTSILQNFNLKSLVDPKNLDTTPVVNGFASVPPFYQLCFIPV
Acetyl-CoA carboxylase 2, sequence (O00763 whole entry): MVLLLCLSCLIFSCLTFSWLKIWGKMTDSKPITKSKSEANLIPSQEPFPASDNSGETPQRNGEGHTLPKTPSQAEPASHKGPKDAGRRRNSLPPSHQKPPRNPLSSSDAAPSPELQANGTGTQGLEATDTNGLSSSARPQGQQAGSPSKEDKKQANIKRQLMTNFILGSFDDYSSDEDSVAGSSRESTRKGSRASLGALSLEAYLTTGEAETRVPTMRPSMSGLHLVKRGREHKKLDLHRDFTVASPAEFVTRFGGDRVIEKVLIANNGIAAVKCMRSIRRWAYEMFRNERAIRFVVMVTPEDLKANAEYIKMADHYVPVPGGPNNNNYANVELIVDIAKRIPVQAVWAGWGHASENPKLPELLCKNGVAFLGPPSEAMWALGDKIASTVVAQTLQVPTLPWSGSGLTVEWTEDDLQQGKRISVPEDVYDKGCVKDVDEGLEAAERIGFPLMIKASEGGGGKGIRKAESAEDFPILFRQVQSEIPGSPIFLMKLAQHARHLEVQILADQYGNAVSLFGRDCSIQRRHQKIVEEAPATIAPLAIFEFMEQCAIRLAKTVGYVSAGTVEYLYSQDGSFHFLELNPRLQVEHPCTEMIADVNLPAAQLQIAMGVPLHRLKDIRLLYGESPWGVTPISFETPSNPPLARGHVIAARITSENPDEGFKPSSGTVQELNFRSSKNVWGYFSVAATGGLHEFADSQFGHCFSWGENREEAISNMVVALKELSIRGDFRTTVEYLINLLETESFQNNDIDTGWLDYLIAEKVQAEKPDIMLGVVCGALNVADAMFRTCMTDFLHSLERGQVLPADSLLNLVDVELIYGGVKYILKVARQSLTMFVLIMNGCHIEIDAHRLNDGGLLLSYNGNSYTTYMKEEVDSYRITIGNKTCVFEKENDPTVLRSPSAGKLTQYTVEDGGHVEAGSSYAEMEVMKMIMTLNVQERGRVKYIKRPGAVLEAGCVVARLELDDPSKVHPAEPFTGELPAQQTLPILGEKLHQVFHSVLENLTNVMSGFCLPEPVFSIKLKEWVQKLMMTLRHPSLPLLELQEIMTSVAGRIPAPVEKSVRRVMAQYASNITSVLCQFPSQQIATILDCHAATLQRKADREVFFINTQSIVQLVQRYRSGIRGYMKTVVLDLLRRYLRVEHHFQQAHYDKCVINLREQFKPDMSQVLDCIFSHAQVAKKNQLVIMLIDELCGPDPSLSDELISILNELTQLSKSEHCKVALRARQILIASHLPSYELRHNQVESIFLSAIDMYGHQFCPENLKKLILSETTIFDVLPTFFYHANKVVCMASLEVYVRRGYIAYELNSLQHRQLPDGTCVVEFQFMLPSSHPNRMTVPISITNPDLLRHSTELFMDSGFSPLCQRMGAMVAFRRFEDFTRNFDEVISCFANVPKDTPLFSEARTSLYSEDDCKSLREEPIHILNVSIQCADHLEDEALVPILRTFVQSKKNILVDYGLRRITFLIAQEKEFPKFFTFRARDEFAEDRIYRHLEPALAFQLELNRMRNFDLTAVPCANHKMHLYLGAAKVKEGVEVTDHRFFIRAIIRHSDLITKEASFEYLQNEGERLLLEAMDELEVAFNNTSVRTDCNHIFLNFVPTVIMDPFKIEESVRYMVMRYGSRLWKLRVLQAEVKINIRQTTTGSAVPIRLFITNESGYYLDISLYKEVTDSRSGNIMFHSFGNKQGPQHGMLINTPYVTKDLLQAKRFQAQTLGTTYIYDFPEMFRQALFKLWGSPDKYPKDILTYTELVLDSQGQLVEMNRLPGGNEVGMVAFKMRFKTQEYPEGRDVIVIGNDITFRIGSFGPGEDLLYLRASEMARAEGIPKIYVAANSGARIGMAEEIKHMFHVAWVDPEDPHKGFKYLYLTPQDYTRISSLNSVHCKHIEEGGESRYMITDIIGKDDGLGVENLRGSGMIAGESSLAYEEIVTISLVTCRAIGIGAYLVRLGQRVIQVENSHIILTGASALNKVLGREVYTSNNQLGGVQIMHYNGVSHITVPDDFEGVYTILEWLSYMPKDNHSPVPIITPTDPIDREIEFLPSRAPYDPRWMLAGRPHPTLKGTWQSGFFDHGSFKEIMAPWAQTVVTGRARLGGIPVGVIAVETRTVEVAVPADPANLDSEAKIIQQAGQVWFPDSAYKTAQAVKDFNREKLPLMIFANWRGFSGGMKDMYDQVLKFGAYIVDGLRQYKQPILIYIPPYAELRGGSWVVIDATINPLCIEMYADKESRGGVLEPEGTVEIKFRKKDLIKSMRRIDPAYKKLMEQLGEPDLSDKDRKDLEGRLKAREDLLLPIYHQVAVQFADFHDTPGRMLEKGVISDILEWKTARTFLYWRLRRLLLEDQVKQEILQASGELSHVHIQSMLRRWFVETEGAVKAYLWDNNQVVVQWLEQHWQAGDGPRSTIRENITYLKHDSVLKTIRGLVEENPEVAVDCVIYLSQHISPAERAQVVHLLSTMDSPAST

Take `CCOc1nc2ccc(Oc3ccc(/C=C/[C@H](C)NC(C)=O)cn3)c(Cl)c2s1`: the IC50 at Acetyl-CoA carboxylase 2 was 0.0019 µM; on Acetyl-CoA carboxylase 1 it was 1.95 µM; at Cytochrome P450 1A2, greater than 20 µM; against Cytochrome P450 2C19, 18 µM; against Cytochrome P450 2C9 it was 13 µM; against Cytochrome P450 2D6, greater than 20 µM. For the same molecule, the IC50 at Cytochrome P450 3A4 was greater than 20 µM. Moreover, the Ratio IC50 in the data set listed under Homo sapiens is 1030. Besides, the remaining at 0.5 h is 91% in data set [1] and 100% in data set [2]. The Activity with Mus musculus [3] was 20%; in the data set with Mus musculus [4], 41%; in the data set on Rattus norvegicus [9] it was “Non-Toxic”; in the data set with Rattus norvegicus [10], “Non-Toxic”. In addition, the results for the concentration at 6 h in [5] and in data set [6] were 1130 ng/mL and 2620 ng/mL, respectively. Also, the AUC(0-t) at 24 h in [7] worked out at 620 µg·h/mL. The peak concentration (Cmax) was 34600 ng/mL in data set [8] and 4230 ng/mL in [13]. The molecule also displayed a clearance in [11] of 0.354 mL/min/kg. The AUC in [12] was 99.8 µg·h/mL. In [14], this molecule registered a bioavailability of 83.5%.
